According to patent US20020137929A1, “1 - (3-heterocyclylphenyl) isothiourea, -isourea, -guanidine and -amidine herbicidal agents” (Intellectual Property Department, BASF Aktiengesellschaft, priority 1998, published 2002):

Experiments:
AMBEL (Ragweed, Common) = experiment: Preemergence herbicidal evaluation; format: in vivo, Ambrosia artemisifolia; conditions: rated 4-5 weeks after treatment; for AMBEL rating: preemergence, 0-9 scale
Outline: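 Herbicidal effect scored visually, 0-9, at 4 to 5 weeks against a control; compound applied preemergence by aqueous acetone spray to seeded soil at about 0.0156 to 0.500 kg/ha.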

CYPIR (Rice Flatsedge) = experiment: Preemergence weed control under flooded paddy conditions; format: in vivo, Cyperus iria; conditions: rated 3-4 weeks after treatment
Outline: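 Ratings on a 0-9 visual scale cover stand, vigor, malformation, size, chlorosis and overall appearance relative to a control, taken three to four weeks post-treatment. Application was into flood water over freshly sown silt loam at roughly 0.0313 to 0.500 kg/ha.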

MOOVA (Monochoria) = experiment: Postemergence weed control under flooded paddy conditions; format: in vivo, Monochoria vaginalis; conditions: postemergence weeds, rated 3 to 4 weeks after treatment
Outline: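 Herbicidal effect is judged by eye on a 0–9 scale versus control, 3–4 weeks after dosing. Dosing is into flood water kept 1.5–3 cm over the soil, at about 0.0313–0.500 kg/ha in aqueous/acetone 50/50 v/v, on 3–5 cm weeds and 1.5–2.5-leaf rice seedlings.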

ORYSAT (Rice, Tebonnet) = experiment: Rice tolerance to post-transplant applications, flooded paddy conditions (Table III); format: in vivo, Oryza sativa, (L.) Tebonnet; conditions: in vivo
Procedure: Results of herbicide evaluation are expressed on a rating scale (0-9). The scale is based upon a visual observation of plant stand, vigor, malformation, size, chlorosis and overall plant appearance as compared with a control.
The tolerance of transplanted rice to post-transplanted herbicide applications is determined as follows: two ten-day-old rice seedlings (cv. Tebonnet) are transplanted into silt loam soil in 32 oz. plastic containers with a diameter of 10.5 cm and no drainage holes. After transplanting, the containers are flooded and the water level is maintained at 1.5 to 3 cm above the soil surface. Three days after transplanting, the flooded soil surface of the containers is treated with the selected aqueous/acetone 50/50 v/v mixture containing the test compounds to provide the equivalent of about 0.0313 to 0.500 kg/ha of active ingredient. The treated containers are placed on greenhouse benches, watered such that the water level is maintained as stated above, and cared for in accordance with conventional greenhouse procedures. Three to four weeks after treatment, the test is terminated and each container is examined and herbicidal effect rated according to the rating system provided in Example 37. The compounds evaluated are reported by compound number given in Example 37.
Plant species employed in this example are reported by header abbreviation, common name and scientific name.

[1] = rate 0.0156 kg/ha, rating scale 0-9
[2] = rate 0.0313 kg/ha, rating scale 0-9
[3] = rate 0.0625 kg/ha, rating scale 0-9
[4] = rate 0.1250 kg/ha, rating scale 0-9
[5] = rate 0.2500 kg/ha, rating scale 0-9

Compound | AMBEL rating (AMBEL (Ragweed, Common); 0.0625 kg/ha) | AMBEL rating (AMBEL (Ragweed, Common); 0.2500 kg/ha) | AMBEL rating (AMBEL (Ragweed, Common); 0.5000 kg/ha) | CYPIR herbicidal effect rating (CYPIR (Rice Flatsedge); 0.2500 kg/ha) | Herbicidal rating MOOVA (MOOVA (Monochoria); Rate 0.0313 kg/ha) | Herbicidal rating MOOVA (MOOVA (Monochoria); Rate 0.0625 kg/ha) | Herbicidal rating MOOVA (MOOVA (Monochoria); Rate 0.1250 kg/ha) | Herbicidal rating MOOVA (MOOVA (Monochoria); Rate 0.2500 kg/ha) | herbicidal effect rating, CYPIR (CYPIR (Rice Flatsedge); 0.0313 kg/ha) | herbicidal effect rating, CYPIR (CYPIR (Rice Flatsedge); 0.0625 kg/ha) | herbicidal effect rating, CYPIR (CYPIR (Rice Flatsedge); 0.1250 kg/ha) | herbicidal effect rating, CYPIR (CYPIR (Rice Flatsedge); 0.2500 kg/ha) | Preemergence herbicidal rating AMBEL (AMBEL (Ragweed, Common); [2]) | Preemergence herbicidal rating AMBEL (AMBEL (Ragweed, Common); [3]) | Preemergence herbicidal rating AMBEL (AMBEL (Ragweed, Common); [4]) | Preemergence herbicidal rating AMBEL (AMBEL (Ragweed, Common); [5]) | herbicidal effect rating, ORYSAT (rice tolerance) (ORYSAT (Rice, Tebonnet)) | other results
CCOC(=O)CN1C(=O)C(CC(=O)NO)S/C1=N/c1cc(-n2c(=O)cc(C(F)(F)F)n(C)c2=O)c(F)cc1Cl (centres unmarked) [Compound 98, Ethyl 2-{{2-chloro-5-[3,6-dihydro-3-methyl-2,6-dioxo-4-(trifluoromethyl)-1(2H)-pyrimidinyl]-4-fluorophenyl}imino}-5-[(hydroxycarbamoyl)methyl]-4-oxo-3-thiazolidineacetate] | 2.0 | 5.0 | 7.0 | 9.0 | 9.0 | 9.0 | 9.0 | 9.0 | – | – | – | – | – | – | – | – | – | AMBEL rating (AMBEL (Ragweed, Common); 0.0156 kg/ha): 0.0; AMBEL rating (AMBEL (Ragweed, Common); 0.0313 kg/ha): 0.0; AMBEL rating (AMBEL (Ragweed, Common); 0.1250 kg/ha): 3.0; CYPIR herbicidal effect rating (CYPIR (Rice Flatsedge); 0.0313 kg/ha): 9.0; CYPIR herbicidal effect rating (CYPIR (Rice Flatsedge); 0.0625 kg/ha): 9.0; CYPIR herbicidal effect rating (CYPIR (Rice Flatsedge); 0.1250 kg/ha): 9.0
CN1C(=O)C(CC(=O)NS(=O)(=O)c2ccccc2)SC1=Nc1cc(-n2c(=O)cc(C(F)(F)F)n(C)c2=O)c(F)cc1Cl (centres unmarked) [Compound 102, 2-{{2-Chloro-5-[3,6-dihydro-3-methyl-2,6-dioxo-4-(trifluoromethyl)-1(2H)-pyrimidinyl]-4-fluorophenyl}imino}-3-methyl-4-oxo-N-(phenylsulfonyl)-5-thiazolidineacetamide] | 0.0 | 4.0 | 7.0 | 2.0 | – | – | – | 0.0 | – | – | – | – | – | – | – | – | – | AMBEL rating (AMBEL (Ragweed, Common); 0.0156 kg/ha): 0.0; AMBEL rating (AMBEL (Ragweed, Common); 0.0313 kg/ha): 0.0; CYPIR herbicidal effect rating (CYPIR (Rice Flatsedge); 0.5000 kg/ha): 6.0; Herbicidal rating MOOVA (MOOVA (Monochoria); Rate 0.5000 kg/ha): 4.0
C=CCN1C(=O)C(CC(=O)NS(=O)(=O)CC)SC1=Nc1cc(-n2c(=O)cc(C(F)(F)F)n(C)c2=O)c(F)cc1Cl (centres unmarked) [Compound 104, 3-Allyl-2-{{2-chloro-5-[3,6-dihydro-3-methyl-2,6-dioxo-4-(trifluoromethyl)-1(2H)-pyrimidinyl]-4-fluorophenyl}imino}-N-(ethylsulfonyl)-4-oxo-5-thiazolidineacetamide] | 0.0 | 3.0 | 9.0 | 9.0 | 7.0 | 9.0 | 9.0 | 9.0 | – | – | – | – | – | – | – | – | – | AMBEL rating (AMBEL (Ragweed, Common); 0.1250 kg/ha): 0.0; CYPIR herbicidal effect rating (CYPIR (Rice Flatsedge); 0.0313 kg/ha): 5.0; CYPIR herbicidal effect rating (CYPIR (Rice Flatsedge); 0.0625 kg/ha): 9.0; CYPIR herbicidal effect rating (CYPIR (Rice Flatsedge); 0.1250 kg/ha): 9.0
CC(C)S(=O)(=O)NC(=O)CC1SC(=Nc2cc(-n3c(=O)cc(C(F)(F)F)n(C)c3=O)c(F)cc2Cl)N(C)C1=O (centres unmarked) [Compound 119, 2-{{2-Chloro-5-[3,6-dihydro-3-methyl-2,6-dioxo-4-(trifluoromethyl)-1(2H)-pyrimidinyl]-4-fluorophenyl}imino}-N-(isopropylsulfonyl)-3-methyl-4-oxo-5-thiazolidineacetamide] | – | – | – | – | 4.0 | 7.0 | 8.0 | 9.0 | 4.5 | 7.0 | 8.5 | 8.0 | – | – | – | – | – | Preemergence herbicidal rating AMBEL (AMBEL (Ragweed, Common); rate 0.0156 kg/ha): 0.0; Preemergence herbicidal rating AMBEL (AMBEL (Ragweed, Common); rate 0.0313 kg/ha): 0.0; Preemergence herbicidal rating AMBEL (AMBEL (Ragweed, Common); rate 0.0625 kg/ha): 0.0; Preemergence herbicidal rating AMBEL (AMBEL (Ragweed, Common); rate 0.1250 kg/ha): 4.0; Preemergence herbicidal rating AMBEL (AMBEL (Ragweed, Common); rate 0.2500 kg/ha): 4.0
CN(C)c1ccc(CN2C(=O)CSC2=Nc2cc(-n3c(=O)cc(C(F)(F)F)n(C)c3=O)c(F)cc2Cl)cc1 [Compound 138, 3-{4-Chloro-5-{{3-[p-(dimethylamino)benzyl]-4-oxo-2-thiazolidinylidene}amino}-2-fluorophenyl}-1-methyl-6-(trifluoromethyl)-2,4(1H,3H)-pyrimidinedione] | – | – | – | – | – | – | – | – | 2.0 | 2.0 | 3.0 | 5.0 | 0.0 | 0.0 | 1.0 | 2.0 | 3.0 | Preemergence herbicidal rating AMBEL (AMBEL (Ragweed, Common); [1]): 0.0
Cn1c(C(F)(F)F)cc(=O)n(-c2cc(N=C3SCC(=O)N3Cc3ccc(C(F)(F)F)cc3)c(Cl)cc2F)c1=O [Compound 141, 3-{4-Chloro-2-fluoro-5-{{3-[p-(trifluoromethyl)benzyl]-4-oxo-2-thiazolidinylidene}-amino}phenyl}-1-methyl-6-(trifluoromethyl)-2,4 (1H, 3H)-pyrimidinedione] | – | – | – | – | – | – | – | – | 4.0 | 5.0 | 6.0 | 6.0 | 0.0 | 0.0 | 0.0 | 4.0 | 0.0 | Preemergence herbicidal rating AMBEL (AMBEL (Ragweed, Common); [1]): 0.0
Cc1ccc(CN2C(=O)CSC2=Nc2cc(-n3c(=O)cc(C(F)(F)F)n(C)c3=O)c(F)cc2Cl)cc1Cl [Compound 149, 3-{4-Chloro-5-{[3-(3-chloro-4-methylbenzyl)-4-oxo-2-thiazolidinylidene]amino}-2-fluorophenyl}-1-methyl-6-(trifluoromethyl)-2,4(1H,3H)-pyrimidinedione] | – | – | – | – | – | – | – | – | 3.0 | 4.0 | 7.0 | 4.0 | – | – | 0.0 | 0.0 | 0.0 | –
CCOC(=O)CN1C(=O)C(COC)SC1=Nc1cc(-n2c(=O)cc(C(F)(F)F)n(C)c2=O)c(F)cc1Cl (centres unmarked) [Compound 156, Ethyl 2-{{2-chloro-5-[3,6-dihydro-3-methyl-2,6-dioxo-4-(trifluoromethyl)-1(2H)-pyrimidinyl]-4-fluorophenyl}imino}-5-(methoxymethyl)-4-oxo-3-thiazolidine-acetate] | – | – | – | – | – | – | – | – | – | – | – | 0.0 | 0.0 | 0.0 | 5.0 | 9.0 | 3.0 | –
CCOC(=O)CN1C(=O)C(C(=O)OC(C)(C)C)SC1=Nc1cc(-n2c(=O)cc(C(F)(F)F)n(C)c2=O)c(F)cc1Cl (centres unmarked) [Compound 167, 5-Carboxy-2-{{2-chloro-5-[3,6-dihydro-3-methyl-2,6-dioxo-4-(trifluoromethyl)-1(2H)-pyrimidinyl]-4-fluorophenyl}imino}-4-oxo-3-thiazolidineacetic acid, 5-tert-butyl ethyl ester] | – | – | – | – | – | – | – | – | 7.0 | 9.0 | 9.0 | 9.0 | – | – | – | – | 4.0 | Preemergence herbicidal rating AMBEL (AMBEL (Ragweed, Common); 0.0156 kg/ha): 1.0; Preemergence herbicidal rating AMBEL (AMBEL (Ragweed, Common); 0.0313 kg/ha): 0.0; Preemergence herbicidal rating AMBEL (AMBEL (Ragweed, Common); 0.0625 kg/ha): 7.0; Preemergence herbicidal rating AMBEL (AMBEL (Ragweed, Common); 0.1250 kg/ha): 6.0; Preemergence herbicidal rating AMBEL (AMBEL (Ragweed, Common); 0.2500 kg/ha): 7.0; Preemergence herbicidal rating AMBEL (AMBEL (Ragweed, Common); 0.5000 kg/ha): 8.0
